Measured values published in PubChem BioAssay (NCI).
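How tested: cells in 96-well plates exposed to compound for 48 hours at five concentrations. TGI marks complete inhibition of growth.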

What was measured:
Experiment in all cases: NCI anticancer screen, dose series, 48 h
[1] = test system: LOX IMVI melanoma
[2] = test system: T-47D breast
[3] = test system: NCI-H226 lung
[4] = test system: HCT-15 colon
[5] = test system: HT29 colon
[6] = test system: NCI-H460 lung
[7] = test system: SF-295 CNS
[8] = test system: NCI/ADR-RES ovarian
[9] = test system: M14 melanoma
[10] = test system: A498 renal
[11] = test system: UACC-257 melanoma
[12] = test system: OVCAR-4 ovarian
[13] = test system: HOP-62 NSCLC
[14] = test system: MCF7 breast
[15] = test system: KM12 colon
[16] = test system: K-562 leukemia
[17] = test system: 786-0 renal
[18] = test system: SK-MEL-2 melanoma

| SMILES | TGI [1] [µM] | TGI [2] [µM] | TGI [3] [µM] | TGI [4] [µM] | TGI [5] [µM] | TGI [6] [µM] | TGI [7] [µM] | TGI [8] [µM] | TGI [9] [µM] | TGI [10] [µM] | TGI [11] [µM] | TGI [12] [µM] | TGI [13] [µM] | TGI [14] [µM] | TGI [15] [µM] | TGI [16] [µM] | TGI [17] [µM] | TGI [18] [µM] |
| --- | --- | --- | --- | --- | --- | --- | --- | --- | --- | --- | --- | --- | --- | --- | --- | --- | --- | --- |
| CCSc1nnc(Sc2c3ccccc3nc3ccccc23)s1 | 23.7 | > 44.2 | > 78.9 | 13.3 | > 55.6 | 42.5 | > 100 | > 64.2 | 32.1 | > 62.4 | 23.6 | 34.7 | > 100 | 17.5 | 77.8 | > 100 | 7.54 | 56.2 |
| O=C1Cc2c([nH]c3ccc(Br)cc23)-c2cc(Br)ccc2N1 | > 100 | > 100 | > 100 | > 100 | – | > 100 | > 100 | > 100 | > 100 | > 100 | > 100 | > 100 | – | > 100 | > 100 | > 100 | > 100 | > 100 |
| Nc1cc(Cl)cc2cc(Cl)cnc12 | > 100 | > 100 | > 100 | > 100 | > 100 | > 100 | > 100 | > 100 | > 100 | > 100 | > 100 | > 100 | > 100 | > 100 | > 100 | > 100 | > 100 | – |
| COc1cccc(Nc2nc(C)c([N+](=O)[O-])c(Nc3cccc(OC)c3)n2)c1 | > 100 | 6.9 | > 100 | > 100 | > 100 | 19.8 | 47.9 | 14.4 | > 100 | 50.4 | 46.7 | – | 46.2 | > 100 | – | > 100 | > 100 | 96.5 |
| COc1ccc(NC(=S)Nc2cc(C)ccn2)cc1 | > 100 | > 100 | > 100 | > 100 | > 100 | > 100 | – | > 100 | – | > 100 | > 100 | > 100 | > 100 | > 100 | > 100 | > 100 | > 100 | > 100 |
| O=[N+]([O-])/C(C(Cl)=C(Cl)Cl)=C1\Nc2ccc([N+](=O)[O-])cc2N1 | – | > 100 | > 100 | > 100 | – | > 100 | > 100 | > 100 | > 100 | > 100 | > 100 | > 100 | > 100 | > 100 | > 100 | > 100 | > 100 | > 100 |
| O=C(Nc1ccc(Cl)cc1)c1cc(S(=O)(=O)Nc2n[nH]c(Nc3ccc4ccccc4c3)n2)c(SSc2cc(Cl)c(C(=O)Nc3ccc(Cl)cc3)cc2S(=O)(=O)Nc2n[nH]c(Nc3ccc4ccccc4c3)n2)cc1Cl | 37.8 | 43.6 | 54.4 | 43.7 | 38.2 | 73.7 | 58.3 | > 85.4 | 59 | 52.1 | > 96.4 | 97.5 | 80.6 | > 64 | 50.4 | 47.3 | > 94.3 | – |
| CN(C)CCn1c(=O)c2ccc(NCCNCCO)c3c(=O)c4ccccc4n(c1=O)c23 | 0.78 | 7.61 | 4.28 | 6.9 | 4.6 | – | 14.6 | 16.3 | 1.72 | 0.458 | 3.14 | 5.24 | 0.851 | 3.2 | 2.42 | 1.08 | 4.16 | 1.85 |
| CC(=O)c1c(-c2ccc(Cl)cc2)c(-c2ccc(Cl)cc2)n[nH]c1=O | 73.9 | > 100 | > 100 | > 100 | > 100 | > 100 | > 100 | > 100 | > 100 | 77.4 | > 100 | 94.8 | – | > 100 | > 100 | > 100 | > 100 | 81.3 |
| Cc1ccc(S(=O)(=O)NC(=O)NCc2ccc(S(N)(=O)=O)cc2)cc1 | > 100 | > 100 | > 100 | > 100 | > 100 | > 100 | > 100 | > 100 | > 100 | > 100 | – | > 100 | > 100 | > 100 | > 100 | > 100 | > 100 | > 100 |
| [O-][n+]1nc(N2CCOCC2)nc2ccccc21 | > 100 | > 100 | > 100 | > 100 | > 100 | – | > 100 | > 100 | > 100 | > 100 | > 100 | – | > 100 | > 100 | > 100 | > 100 | > 100 | > 100 |
| CC12Nc3c(Cl)cc(Cl)cc3N1C(=O)c1ccccc12 (stereo not drawn) | > 100 | > 100 | > 100 | > 100 | > 100 | > 100 | > 100 | > 100 | – | 99.9 | > 100 | > 100 | > 100 | > 100 | > 100 | – | > 100 | > 100 |
| NC(CSS(=O)(=O)O)=NC1CC2CCC1C2 (stereo not drawn) | > 100 | > 100 | > 100 | > 100 | – | > 100 | > 100 | > 100 | > 100 | > 100 | > 100 | > 100 | > 100 | > 100 | > 100 | > 100 | > 100 | > 100 |
| O=C1c2c(Br)sc(Br)c2C(NC(=O)C(F)(F)F)C1O (stereo not drawn) | 44.5 | 55.9 | 79.8 | 33.6 | 53.6 | 36 | 35.7 | 75.2 | 48.2 | > 100 | 36.4 | 34.8 | – | 45.3 | 91.6 | > 100 | 36.7 | 40.9 |
